Read-outs that look alike come from different tables or passages of the source.
Columns and labels:
[1] = target: T1, epidermal growth factor receptor tyrosine kinase (Homo sapiens, UniProt P00533); assay: EGF receptor tyrosine kinase assay (P^32 incorporation in GAT); format: biochemical; details: for IC50: read-out: IC50 (EGFR TK); for inhibition at 100 µM: EGRF-R, read-out: % Inhibition at 100 μM (EGFR TK)
T1 construct: A native 170,000 epidermal growth factor receptor-kinase complex from shed plasma membrane vesicles; endogenous in cells
Method: At the time of assay, membranes were solubilized in 4% Triton X-100 and glycerol. The reaction is carried out in wells of a 96-well microtiter plate in a total volume of […]. Buffer containing 20 mMHepes (pH 7.4), 15 mMMgCl2, mM MnCl2, and 0.02% BSA followed by […] of membrane protein and 150 ng of epidermal growth factor. The plates are incubated for 10 minutes at room temperature to activate the receptor kinase. […] ATP plus or minus compound are added and incubated 10 minutes at room temperature.

[2] = tested on: Swiss 3T3 mouse fibroblasts; assay: Growth inhibition assay, Swiss 3T3 fibroblasts; format: cell-based
Method: Swiss 3T3 mouse fibroblasts were maintained in dMEM/F12 media containing 10% fetal calf serum. […] The cells were grown at 37° C. under 5% CO2 for 72 hours and then counted by Coulter counter. The data were expressed as the concentration of inhibitor necessary to decrease the growth rate by 50%.

[3] = target: T2, human PDGF β receptor intracellular tyrosine kinase domain (Homo sapiens, UniProt P09619); assay: PDGF receptor tyrosine kinase inhibition assay (P^32 incorporation in Glu-Tyr); format: biochemical; details: at 100 μM; PDGF-R; read-out: % Inhibition at 100 μM (PDGFR TK)
T2 construct: human PDGF β receptor intracellular tyrosine kinase domain; made in house; host or cells: SF9 insect cells, recombinant baculovirus; cell lysates used
Method: Recombinant baculovirus containing human PDGF β receptor intracellular tyrosine kinase domain was used to infect SF9 cells to overexpress the protein, and cell lysates were used for the assay. The ability of the tyrosine kinase to phosphorylate glutamate tyrosine substrate in the presence of P^32 -ATP and inhibitor was measured by counting the incorporation of P^32 in Glu-Tyr in TCAprecipitable material.

[4] = Swiss 3T3, 72 hours, Table 2, read-out: IC50 growth inhibition
[5] = Swiss-3T3, 72 h, read-out: IC50 growth inhibition

T2 sequence (P09619 554-1106 limits assumed): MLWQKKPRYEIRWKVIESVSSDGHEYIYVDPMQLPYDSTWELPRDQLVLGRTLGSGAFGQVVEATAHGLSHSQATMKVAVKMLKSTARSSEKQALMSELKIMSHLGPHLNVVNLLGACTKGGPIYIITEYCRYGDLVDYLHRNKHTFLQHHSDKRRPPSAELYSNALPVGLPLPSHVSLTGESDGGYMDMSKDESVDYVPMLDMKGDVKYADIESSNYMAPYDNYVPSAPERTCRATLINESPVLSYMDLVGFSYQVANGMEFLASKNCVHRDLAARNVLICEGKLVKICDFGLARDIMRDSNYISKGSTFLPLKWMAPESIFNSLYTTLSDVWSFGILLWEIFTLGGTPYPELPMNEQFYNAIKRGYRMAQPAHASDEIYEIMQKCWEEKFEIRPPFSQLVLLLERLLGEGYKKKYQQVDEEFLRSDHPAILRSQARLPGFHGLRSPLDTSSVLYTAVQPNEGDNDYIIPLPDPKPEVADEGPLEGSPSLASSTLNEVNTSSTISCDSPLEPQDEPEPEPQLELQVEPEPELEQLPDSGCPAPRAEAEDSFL
T1 sequence (P00533 25-1210): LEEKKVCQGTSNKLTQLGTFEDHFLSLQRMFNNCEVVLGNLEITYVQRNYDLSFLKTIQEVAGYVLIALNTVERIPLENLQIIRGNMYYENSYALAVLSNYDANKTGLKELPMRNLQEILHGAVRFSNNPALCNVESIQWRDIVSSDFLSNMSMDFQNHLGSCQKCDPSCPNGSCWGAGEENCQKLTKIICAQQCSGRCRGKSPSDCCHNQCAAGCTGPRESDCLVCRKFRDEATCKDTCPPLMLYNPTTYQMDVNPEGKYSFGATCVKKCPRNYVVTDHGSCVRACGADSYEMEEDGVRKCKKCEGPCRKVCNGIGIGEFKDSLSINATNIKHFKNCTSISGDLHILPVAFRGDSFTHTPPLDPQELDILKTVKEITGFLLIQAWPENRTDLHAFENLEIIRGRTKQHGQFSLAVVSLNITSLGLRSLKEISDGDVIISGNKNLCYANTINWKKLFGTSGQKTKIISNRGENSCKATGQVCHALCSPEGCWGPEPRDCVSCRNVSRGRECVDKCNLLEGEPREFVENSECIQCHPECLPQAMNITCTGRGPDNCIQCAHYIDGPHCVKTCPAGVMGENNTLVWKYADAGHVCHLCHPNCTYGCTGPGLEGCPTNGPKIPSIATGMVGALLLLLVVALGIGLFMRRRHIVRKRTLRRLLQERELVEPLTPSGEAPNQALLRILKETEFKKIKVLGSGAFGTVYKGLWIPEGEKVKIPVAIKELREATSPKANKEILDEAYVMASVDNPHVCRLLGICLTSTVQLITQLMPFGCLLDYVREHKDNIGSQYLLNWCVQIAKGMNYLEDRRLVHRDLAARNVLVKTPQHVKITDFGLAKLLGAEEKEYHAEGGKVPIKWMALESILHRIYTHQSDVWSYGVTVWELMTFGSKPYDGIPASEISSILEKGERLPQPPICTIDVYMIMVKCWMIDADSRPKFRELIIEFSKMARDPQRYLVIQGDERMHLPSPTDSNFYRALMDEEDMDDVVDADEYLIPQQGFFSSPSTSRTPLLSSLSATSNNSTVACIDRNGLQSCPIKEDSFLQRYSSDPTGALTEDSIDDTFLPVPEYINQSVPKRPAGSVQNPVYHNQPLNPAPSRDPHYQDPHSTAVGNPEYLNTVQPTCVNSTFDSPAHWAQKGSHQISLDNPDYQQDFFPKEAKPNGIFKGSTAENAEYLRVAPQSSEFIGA
T1 sequence (P01133 971-1023 partner limits assumed): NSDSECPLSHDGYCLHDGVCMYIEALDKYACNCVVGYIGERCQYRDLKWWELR

| Structure (SMILES) | IC50 ([1]; Table 2, EGRF-R, IC50 entries) | IC50 [2, 4] | inhibition at 100 µM [1] | inhibition at 100 µM [3] | other results |
| --- | --- | --- | --- | --- | --- |
| COC(=O)CCc1c(SSc2[nH]c3ccccc3c2CCC(=O)OC)[nH]c2ccccc12 [Compound 39] | 20.6 µM | 7.4 µM |  |  |  |
| CCOC(=O)CCC1C(=S)Nc2ccccc21 (stereo not shown) [Compound 10, ethyl 3-(2-thioxo-3-indolinyl) propanoate] |  | 34 µM | 10% |  |  |
| COC(=O)CCCc1c(SSc2c(CCCC(=O)OC)c3ccccc3n2C)n(C)c2ccccc12 [Compound 68, bis[methyl 1-methylindolyl-3-butanoate-(2)]disulfide] |  | 1.8 µM | 14% |  |  |
| Cc1c(SSc2c(C)c3ccccc3n2C)n(C)c2ccccc12 [Compound 103] |  |  | 7% |  | IC50 [2, 5]: 3.8 µM |
| COC(=O)Cc1c(SSSc2[nH]c3ccccc3c2CC(=O)OC)[nH]c2ccccc12 [Compound 31, bis[methylindolyl-3-acetate-(2)]trisulfide] | 35.5 µM | 1 µM |  |  |  |
| CCOC(=O)CCc1c(SSc2[nH]c3c(C)cccc3c2CCC(=O)OCC)[nH]c2c(C)cccc12 [Compound 46, bis[ethyl 7-methylindolyl-3-propanoate-(2)] disulfide] |  | 2.7 µM | 11.4% |  |  |
| CCN(CC)CCNC(=O)c1c([Se][Se]c2c(C(=O)NCCN(CC)CC)c3ccccc3n2C)n(C)c2ccccc12 [Compound 132, 2,2'-diselenobis [N-[2-(diethylamino)ethyl]-1-methyl-1H-indole-3-carboxamide]] |  |  |  |  | IC50 [1]: 4.7 µM; IC50 [2, 5]: 20 µM |
| Cc1ccc2c(C(=O)Nc3ccccc3)c(SSc3c(C(=O)Nc4ccccc4)c4ccc(C)cc4n3C)n(C)c2c1 [Compound 77, bis [N-phenyl 1,6-dimethylindolyl-3-carboxamide-(2)]disulfide] |  |  | 9% | 1% |  |
| N#CCc1c(SSc2[nH]c3ccccc3c2CC#N)[nH]c2ccccc12 [Compound 35, 2,2'-dithiobis[3-indolylacetonitrile]] | 16.5 µM |  |  | 33.9% |  |
| CN(C(=O)c1c(SSc2c(C(=O)N(C)c3ccccc3)c3ccccc3n2C)n(C)c2ccccc12)c1ccccc1 [Compound 113, 2,2 '-dithiobis [N-methyl-N-phenyl-1-methylindolyl-3-carboxamide]] |  |  | 5% | 29% |  |
| CCN(CC)CCNC(=O)c1c([Se][Se]c2[nH]c3ccccc3c2C(=O)NCCN(CC)CC)[nH]c2ccccc12 [Compound 134, 2,2'-diselenobis [N-[2-(diethylamino)ethyl]-1H-indole-3-carboxamide]] |  |  |  |  | IC50 [2, 5]: 8 µM |
| O=C(CCc1c(SSc2[nH]c3ccccc3c2CCC(=O)Nc2ccccc2)[nH]c2ccccc12)Nc1ccccc1 [Compound 59] | 30.5 µM |  |  | 11.4% |  |
| Cn1c(SSc2c(C(=O)Nc3ccccc3)c3c(Cl)cccc3n2C)c(C(=O)Nc2ccccc2)c2c(Cl)cccc21 [Compound 72, bis[N-phenyl 4-chloro-1-methylindolyl-3-carboxamide-(2)] disulfide] |  |  | 47% | 22% |  |
| Cn1c(SSc2c(C(=O)Nc3ccccc3)c3ccc(Cl)cc3n2C)c(C(=O)Nc2ccccc2)c2ccc(Cl)cc21 [Compound 85, bis[N-phenyl 6-chloro-1-methylindolyl-3-carboxamide-(2)]disulfide] |  |  | 8% | 7% |  |
| O=C(CCc1c(SSc2[nH]c3ccccc3c2CCC(=O)NCc2ccc(C(=O)O)cc2)[nH]c2ccccc12)NCc1ccc(C(=O)O)cc1 [Compound 56, 2,2'-dithiobis[N-(4-carboxybenzyl)-3-(3-indolyl)propanamide]] | 7.3 µM |  |  | 44.5% |  |
| O=C(NCc1ccccc1)C(Cc1c(SSc2[nH]c3ccccc3c2CC(NC(=O)C(F)(F)F)C(=O)NCc2ccccc2)[nH]c2ccccc12)NC(=O)C(F)(F)F (racemic) [Compound 61, 2,2'-dithiobis[N-benzyl-α-trifluoroacetylamino-3-(3-indolyl)propanamide]] |  |  | 37% | 11% |  |

Reference: US5464861A, “2-thioindoles (selenoindoles) and related disulfides (selenides) which inhibit protein tyrosine kinases and which have antitumor properties” (Warner-Lambert, priority 1993, dated 1995)
